Inhibition and IC50 data for 28 compounds are collected here from ChEMBL document CHEMBL5360655, “Design, Synthesis, and Biological Evaluation of Novel P2X7 Receptor Antagonists for the Treatment of Septic Acute Kidney Injury” (J Med Chem, 2023).

What all share (format): cell-based
Test [1] has as its target T1, P2X purinoceptor 7 (Mus musculus) (UniProt Q9Z1M0).
T1 sequence (whole entry): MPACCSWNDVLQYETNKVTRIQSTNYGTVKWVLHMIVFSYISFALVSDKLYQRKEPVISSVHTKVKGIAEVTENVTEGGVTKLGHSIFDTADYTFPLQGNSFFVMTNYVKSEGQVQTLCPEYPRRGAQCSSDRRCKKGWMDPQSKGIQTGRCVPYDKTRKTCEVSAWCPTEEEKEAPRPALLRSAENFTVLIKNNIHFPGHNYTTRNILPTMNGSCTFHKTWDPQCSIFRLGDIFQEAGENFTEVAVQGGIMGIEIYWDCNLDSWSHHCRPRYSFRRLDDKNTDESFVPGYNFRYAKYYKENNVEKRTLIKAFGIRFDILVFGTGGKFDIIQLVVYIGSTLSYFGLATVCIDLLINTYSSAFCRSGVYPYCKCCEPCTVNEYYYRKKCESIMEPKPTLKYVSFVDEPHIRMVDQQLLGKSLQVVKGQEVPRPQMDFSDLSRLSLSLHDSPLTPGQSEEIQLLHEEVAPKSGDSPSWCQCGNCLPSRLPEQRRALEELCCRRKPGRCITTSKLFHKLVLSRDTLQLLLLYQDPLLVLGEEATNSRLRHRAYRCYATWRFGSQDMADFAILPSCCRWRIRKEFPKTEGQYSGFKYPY
The experiment in a line: Antagonist activity at mouse P2X7 receptor expressed in HEK293 cells assessed as inhibition of ATP-induced receptor pore formation at 200 nM by propidium iodide dye uptake based fluorescence analysis.

Test [2] deals with T2, P2X purinoceptor 7 (Homo sapiens, UniProt Q99572).
T2 sequence (Q99572 whole entry): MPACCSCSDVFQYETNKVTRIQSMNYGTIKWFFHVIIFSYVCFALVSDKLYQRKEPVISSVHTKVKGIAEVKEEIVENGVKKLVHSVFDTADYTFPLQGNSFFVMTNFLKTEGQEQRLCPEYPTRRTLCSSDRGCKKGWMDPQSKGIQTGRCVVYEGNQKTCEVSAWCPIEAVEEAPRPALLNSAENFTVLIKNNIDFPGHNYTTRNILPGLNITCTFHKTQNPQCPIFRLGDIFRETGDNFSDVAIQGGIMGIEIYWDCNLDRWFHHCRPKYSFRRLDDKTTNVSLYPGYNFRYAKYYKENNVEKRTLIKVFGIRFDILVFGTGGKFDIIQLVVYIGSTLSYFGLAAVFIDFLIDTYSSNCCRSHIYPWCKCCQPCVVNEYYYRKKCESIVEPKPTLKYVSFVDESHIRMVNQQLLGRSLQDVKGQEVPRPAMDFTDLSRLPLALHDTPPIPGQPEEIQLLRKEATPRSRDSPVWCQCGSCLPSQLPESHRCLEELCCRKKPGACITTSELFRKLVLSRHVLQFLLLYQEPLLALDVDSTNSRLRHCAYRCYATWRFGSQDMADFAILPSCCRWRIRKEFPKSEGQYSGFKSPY
Nature of the test: Antagonist activity at human P2X7 receptor expressed in HEK293 cells assessed as inhibition of ATP-induced receptor pore formation by propidium iodide dye uptake based fluorescence analysis.

Test [3] deals with T3, P2X purinoceptor 7 (Homo sapiens) (UniProt Q99572).
T3 sequence (whole entry): T2 sequence (Q99572 whole entry)
The experiment in a line: Antagonist activity at human P2X7 receptor expressed in HEK293 cells assessed as inhibition of ATP-induced receptor pore formation at 200 nM by propidium iodide dye uptake based fluorescence analysis.

The target of test [4] is T3, P2X purinoceptor 7 (Homo sapiens). Nature of the test: Antagonist activity at human P2X7 receptor expressed in HEK293 cells assessed as inhibition of ATP-induced receptor pore formation at 1 uM by propidium iodide dye uptake based fluorescence analysis.
Test [5] concerns the target T1, P2X purinoceptor 7 (Mus musculus). Nature of the test: Antagonist activity at mouse P2X7 receptor expressed in HEK293 cells assessed as inhibition of ATP-induced receptor pore formation at 1 uM by propidium iodide dye uptake based fluorescence analysis.
The target of test [6] is T4, P2X purinoceptor 7 (Mus musculus, UniProt Q9Z1M0).
T4 sequence (Q9Z1M0 whole entry): T1 sequence (whole entry)
The experiment in a line: Antagonist activity at mouse P2X7 receptor expressed in HEK293 cells assessed as inhibition of ATP-induced receptor pore formation by propidium iodide dye uptake based fluorescence analysis.

Test [7] has as its target T3, P2X purinoceptor 7 (Homo sapiens). Nature of the test: Antagonist activity at human P2X7 receptor expressed in HEK293 cells assessed as inhibition of ATP-induced receptor pore formation at 10 uM by propidium iodide dye uptake based fluorescence analysis.
In test [8] the target is T1, P2X purinoceptor 7 (Mus musculus). The experiment in a line: Antagonist activity at mouse P2X7 receptor expressed in HEK293 cells assessed as inhibition of ATP-induced receptor pore formation at 10 uM by propidium iodide dye uptake based fluorescence analysis.

Calls of active or inactive are those of the source. No cut-off for these calls is given here.

The inhibition is the relative decrease from the control value, in per cent. As a reminder, the IC50 is the midpoint of a concentration-inhibition curve. For the compound `CS(=O)(=O)c1ccc(-c2nc(C(=O)NCc3cn(-c4ccc(Br)cn4)nn3)cs2)cc1`, the inhibition entry in test [1] and in test [5] was “inactive” throughout. Besides, the IC50 in test [2] turned out to be 811 nM. The inhibition amounted to 11% in test [3] and 51.6% in test [4] (filed as antagonist).

Regarding `CS(=O)(=O)Nc1ccc(-c2ccc(Cl)c(C(=O)NCc3cn(-c4cc(Cl)ccn4)nn3)c2)cc1`, the inhibition result in test [1], in test [3] and in test [4] was “inactive” each time. Also, the inhibition in test [5] (filed as antagonist) is 45.1%.

With `CS(=O)(=O)c1cccc(-c2ncc(C(=O)NCc3cn(-c4cc(Cl)ccn4)nn3)s2)c1`, the inhibition result in test [1] and in test [3] was “inactive” throughout. For the same compound, the inhibition came out at 36.7% in test [4] and 25.8% in test [5].

With `O=C(NCc1cn(-c2cc(Cl)ccn2)nn1)c1cc(-c2cccc3[nH]ccc23)ccc1Cl`, in test [1], the inhibition entry was “inactive”. For the same compound, the inhibition in test [3] was found to be 15.6%; in test [4] it was 34.1%; in test [5] it was 10.2%.

On to `Nc1ccc(-c2ncc(C(=O)NCc3cn(-c4cc(Cl)ccn4)nn3)s2)cc1`, for which the inhibition in test [1] (filed as antagonist) is 51.7%; in test [3] (filed as antagonist), 46.2%; in test [4] it was 39.2%; in test [5] (filed as antagonist), 60.7%. Besides, the IC50 in test [6] was determined as 188 nM.

`Cc1cccc(Cl)c1C(=O)NCc1cn(-c2cc(Cl)ccn2)nn1`: the inhibition entry in test [7] is “inactive”. In addition, the inhibition in test [8] came to 34.4%.

As for `CS(=O)(=O)c1ccc(-c2ccc(Cl)c(C(=O)NCc3cn(-c4cc(Cl)ccn4)nn3)c2)cc1`, the inhibition was > 50% in test [7] (filed as antagonist); 66% in test [1] (filed as antagonist); 22.9% in test [3]; > 50% in test [8] (filed as antagonist); 40% in test [4] (filed as antagonist); 71% in test [5] (filed as antagonist). In addition, in test [6], the IC50 was 99.1 nM.

Regarding `CS(=O)(=O)c1ccc(-c2csc(C(=O)NCc3cn(-c4cc(Cl)ccn4)nn3)n2)cc1`, the inhibition in test [1] (filed as antagonist) is 55.2%; in test [3], 5%; in test [4] (filed as antagonist), 40.9%; in test [5] (filed as antagonist) it was 74%. For the same compound, the IC50 in test [6] was 166 nM.

For the compound `O=C(NCc1cn(-c2cc(Cl)ccn2)nn1)c1cccc(C(F)(F)F)c1Cl`, the inhibition in test [7] (filed as antagonist) came out at 46.5%; in test [8], 13.2%.

With `O=C(NCc1cn(-c2cc(Cl)ccn2)nn1)c1cc(-c2cccc3ncccc23)ccc1Cl`, the inhibition was > 50% in test [7] (filed as antagonist); 66.7% in test [1] (filed as antagonist); 13.6% in test [3]; > 50% in test [8] (filed as antagonist); 33.1% in test [4]; 72.4% in test [5] (filed as antagonist). In addition, the IC50 in test [6] was 138 nM.

Consider `CS(=O)(=O)c1ccc(-c2nc(C(=O)NCc3cn(-c4cc(F)ccn4)nn3)cs2)cc1`, for which the inhibition in test [1] was 23.3%; in test [4], 23.2%; in test [5] (filed as antagonist) it was 41.9%. The inhibition entry in test [3] is “inactive”.

`O=C(NCc1cn(-c2cc(Cl)ccn2)nn1)c1cc(-c2cccc3cc[nH]c23)ccc1Cl`: the inhibition turned out to be 25.6% in test [1] and 62.5% in test [5] (filed as antagonist). The IC50 in test [6] was determined as 351 nM. For the same compound, the inhibition entry in test [3] and in test [4] was “inactive” in each case.

Take `Cc1cc(F)ccc1-c1ccc(Cl)c(C(=O)NCc2cn(-c3cc(Cl)ccn3)nn2)c1`: the inhibition in test [1] turned out to be 17.8%; in test [3], 13.4%; in test [4], 23.3%; in test [5], 9.2%.

As for `CS(=O)(=O)c1ccc(-c2ncc(C(=O)NCc3cn(-c4cc(F)ccn4)nn3)s2)cc1`, the inhibition was found to be 68.4% in test [1] (filed as antagonist), 37.8% in test [3], 45.1% in test [4] (filed as antagonist) and 61.8% in test [5] (filed as antagonist). For the same compound, the IC50 in test [6] was found to be 196 nM.

As to `CS(=O)(=O)c1ccc(-c2ncc(C(=O)NCc3cn(-c4cccc(Br)n4)nn3)s2)cc1`, the inhibition entry in test [1] and in test [3] was “inactive” throughout. Further, the IC50 in test [6] stood at 626 nM. The inhibition in test [4] worked out at 6.2%; in test [5] (filed as antagonist), 52%.

Turning to `O=C(NCc1cn(-c2cc(Cl)ccn2)nn1)c1ccc(C(F)(F)F)c(Br)c1`, the inhibition in test [7] (filed as antagonist) turned out to be 53.5%; in test [8], 22.5%.

Take `O=C(NCc1cn(-c2cc(Cl)ccn2)nn1)c1ccc(C(F)(F)F)cc1Cl`: the results for the inhibition in test [7] (filed as antagonist) and in test [8] were 45.1% and 39.3%, respectively.

Regarding `O=C(NCc1cn(-c2cc(Cl)ccn2)nn1)c1cc(Br)ccc1Cl`, the values for the inhibition in test [7] (filed as antagonist) and in test [8] were 59.3% and 10%, respectively.

With `CS(=O)(=O)c1ccc(-c2ncc(C(=O)NCc3cn(-c4ccc(Br)cn4)nn3)s2)cc1`, the inhibition result in test [1] and in test [5] was “inactive” each time. For the same compound, the values for the inhibition in test [3] and in test [4] were 12.4% and 33.3%, respectively.

`Nc1cccc(-c2ccc(Cl)c(C(=O)NCc3cn(-c4cc(Cl)ccn4)nn3)c2)c1`: the figures for the inhibition in test [1], in test [3] and in test [4] were 19.1%, 24.4% and 21.9%, respectively. The inhibition entry in test [5] was “inactive”.

`Nc1cccc(-c2ncc(C(=O)NCc3cn(-c4cc(Cl)ccn4)nn3)s2)c1`: the inhibition amounted to 2.9% in test [1], 9.8% in test [3], 57.3% in test [4] (filed as antagonist) and 35.2% in test [5]. Further, the IC50 in test [2] amounted to 658 nM.

On to `CC(C)Cc1ccc(-c2ccc(Cl)c(C(=O)NCc3cn(-c4cc(Cl)ccn4)nn3)c2)cc1`, for which the inhibition result in test [1] was “inactive”. In addition, the IC50 in test [6] was found to be 409 nM. The inhibition in test [3] was 20.7%; in test [4], 39.2%; in test [5] (filed as antagonist) it was 59.3%.

As to `O=C(NCc1cn(-c2cc(Cl)ccn2)nn1)c1ccccc1Cl`, the inhibition result in test [7] and in test [8] was “inactive” throughout.

For the compound `O=C(NCc1cn(-c2cc(Cl)ccn2)nn1)c1ccc(Cl)cc1`, in test [7], the inhibition entry is “inactive”. For the same compound, the inhibition in test [8] (filed as antagonist) is 62.8%.

Take `CS(=O)(=O)c1ccc(-c2nc(C(=O)NCc3cn(-c4cccc(Br)n4)nn3)cs2)cc1`: the inhibition result in test [1] and in test [5] was “inactive” in each case. Moreover, the concentration for half-maximal inhibition (IC50) in test [2] worked out at 710 nM. For the same compound, the inhibition in test [3] came out at 10.1%; in test [4] (filed as antagonist) it was 53.8%.

In the case of `CS(=O)(=O)c1cccc(-c2ccc(Cl)c(C(=O)NCc3cn(-c4cc(Cl)ccn4)nn3)c2)c1`, the inhibition in test [7] (filed as antagonist) was > 50%; in test [8] (filed as antagonist), > 50%; in test [4] (filed as antagonist) it was 41.9%; in test [5] (filed as antagonist), 49.6%. Moreover, the inhibition entry in test [1] and in test [3] was “inactive” each time.

Turning to `O=C(NCc1cn(-c2cc(Cl)ccn2)nn1)c1c(Cl)cccc1Br`, the inhibition was determined as 23.1% in test [7] and 62.3% in test [8] (filed as antagonist).

For the compound `CS(=O)(=O)Nc1cccc(-c2ncc(C(=O)NCc3cn(-c4cc(Cl)ccn4)nn3)s2)c1`, the inhibition result in test [1] and in test [3] was “inactive” throughout. Besides, the inhibition was 6.8% in test [4] and 17.3% in test [5].
